Test results reported in ChEMBL document CHEMBL1135906 (J Med Chem, 2002).

Tests used:
[1] = biological target: T1, Prostaglandin G/H synthase 2 (Homo sapiens, UniProt P35354); test: Inhibition of human purified Prostaglandin G/H synthase 2
T1 sequence (P35354 whole entry): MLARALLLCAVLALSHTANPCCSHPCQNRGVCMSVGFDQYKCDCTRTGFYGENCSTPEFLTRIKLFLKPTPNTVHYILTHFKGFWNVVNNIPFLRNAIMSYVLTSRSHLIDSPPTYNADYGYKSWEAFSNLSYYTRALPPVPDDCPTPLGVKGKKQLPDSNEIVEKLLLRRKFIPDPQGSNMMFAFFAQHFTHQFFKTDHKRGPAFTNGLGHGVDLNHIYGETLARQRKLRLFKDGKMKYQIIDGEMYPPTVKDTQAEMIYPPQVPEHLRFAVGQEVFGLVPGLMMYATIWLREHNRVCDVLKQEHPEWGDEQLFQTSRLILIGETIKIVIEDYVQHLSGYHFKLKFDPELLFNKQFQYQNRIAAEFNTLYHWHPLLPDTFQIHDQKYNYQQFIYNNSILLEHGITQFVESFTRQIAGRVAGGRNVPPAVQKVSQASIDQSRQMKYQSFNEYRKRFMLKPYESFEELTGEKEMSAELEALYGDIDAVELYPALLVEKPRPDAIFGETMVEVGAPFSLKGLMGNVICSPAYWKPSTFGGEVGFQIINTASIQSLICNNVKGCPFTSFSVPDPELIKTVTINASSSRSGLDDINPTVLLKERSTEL

[2] = biological target: Prostaglandin G/H synthase 1 (Homo sapiens, UniProt P23219); test: Inhibition of human purified Prostaglandin G/H synthase 1
Chain of Prostaglandin G/H synthase 1 (P23219 whole entry): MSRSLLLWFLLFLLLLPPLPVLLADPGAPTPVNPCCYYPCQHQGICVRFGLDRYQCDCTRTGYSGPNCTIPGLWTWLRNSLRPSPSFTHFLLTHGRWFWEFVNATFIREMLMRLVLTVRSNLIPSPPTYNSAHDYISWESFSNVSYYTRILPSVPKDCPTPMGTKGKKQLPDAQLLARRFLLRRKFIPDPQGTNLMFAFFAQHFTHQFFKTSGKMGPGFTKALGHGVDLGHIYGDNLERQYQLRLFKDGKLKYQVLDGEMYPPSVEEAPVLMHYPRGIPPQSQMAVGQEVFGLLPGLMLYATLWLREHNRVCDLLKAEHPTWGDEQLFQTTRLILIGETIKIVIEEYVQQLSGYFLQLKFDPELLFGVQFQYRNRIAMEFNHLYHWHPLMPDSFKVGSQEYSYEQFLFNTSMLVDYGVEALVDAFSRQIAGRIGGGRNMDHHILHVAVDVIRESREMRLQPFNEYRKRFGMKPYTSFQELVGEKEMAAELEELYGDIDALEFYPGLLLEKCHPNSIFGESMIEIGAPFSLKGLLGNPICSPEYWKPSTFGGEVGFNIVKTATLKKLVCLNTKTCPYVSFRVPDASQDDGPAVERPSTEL

Rattus norvegicus [3] = test: The compound was tested in vivo for activity against carrageenan induced paw edema in rat after peroral administration; type: functional; settings: po
Rattus norvegicus [4] = test: The compound was tested in vivo for gastric ulcerogenic activity in rat after peroral administration; type: functional, Stomach
Rattus norvegicus [5] = organism: Rattus norvegicus; test: animal or person; settings: po
Description: The compound was tested in vivo for activity against adjuvant-induced arthritis in rat after peroral administration after peroral administration

Rattus norvegicus [6] = test: The compound was tested in vivo for activity against adjuvant-induced arthritis in rat after peroral administration; type: functional; settings: po
Rattus norvegicus [7] = test: The compound was tested in vivo for activity against yeast -induced hyperalgesia in rat after peroral administration; type: functional; settings: po
Rattus norvegicus [8] = test: The compound was tested in vivo for activity against yeast -induced hyperthermia in rat after peroral administration; type: functional; settings: po
Rattus norvegicus [9] = test: The effective dose in vivo for activity against carrageenan induced paw edema in rat after administering perorally; type: functional
Rattus norvegicus [10] = test: Under dose in vivo for activity against carrageenan induced paw edema in rat after administering perorally; type: functional

SMILES	IC50 [1]	IC50 [2]	further results
Cc1nc(-c2ccc(C)s2)c(-c2ccc(S(N)(=O)=O)c(F)c2)o1	0.026 µM	25 µM	
Cc1nc(-c2ccc(F)cc2)c(-c2ccc(S(N)(=O)=O)c(F)c2)o1	0.04 µM	40 µM	
Cc1nc(C2CCCCC2)c(-c2ccc(S(N)(=O)=O)c(O)c2)o1	19.7 µM	> 100 µM	
Cc1nc(C2CCCCC2)c(-c2ccc(S(N)(=O)=O)c(C)c2)o1		> 100 µM	
COc1cc(-c2oc(C)nc2C2CCCCC2)ccc1S(N)(=O)=O	> 100 µM	> 100 µM	
Cc1nc(C2CCCCC2)c(-c2ccc(S(N)(=O)=O)c(Cl)c2)o1		> 100 µM	
CC(C)c1nc(C2CCCCC2)c(-c2ccc(S(N)(=O)=O)c(F)c2)o1	0.6 µM	29.7 µM	
CCc1nc(C2CCCCC2)c(-c2ccc(S(N)(=O)=O)c(F)c2)o1	0.12 µM	47 µM	
Cc1nc(-c2ccc(C)s2)c(-c2ccc(S(N)(=O)=O)cc2)o1	0.012 µM	1.8 µM	
Cc1nc(C2CCCCC2)c(-c2ccc(S(N)(=O)=O)c(N)c2)o1	0.93 µM	> 100 µM	
Cc1ccc(-c2cc(C(F)(F)F)nn2-c2ccc(S(N)(=O)=O)cc2)cc1 [CELECOXIB]			ED50 (Rattus norvegicus [3]): 2.8 mg/kg; UD50 (Rattus norvegicus [4]): >200 mg/kg; ED50 (Rattus norvegicus [5]): 0.37 mg/kg
COc1ccc2c(c1)c(CC(=O)O)c(C)n2C(=O)c1ccc(Cl)cc1 [INDOMETHACIN]			ED50 (Rattus norvegicus [6]): 0.13 mg/kg; ED50 (Rattus norvegicus [3]): 1.6 mg/kg; ED50 (Rattus norvegicus [7]): 3.1 mg/kg; ED50 (Rattus norvegicus [8]): 1.4 mg/kg; UD50 (Rattus norvegicus [4]): 3.4 mg/kg
Cc1nc(C2CCCCC2)c(-c2ccc(S(N)(=O)=O)c(F)c2)o1 [TILMACOXIB]	0.085 µM	> 100 µM	ED50 (Rattus norvegicus [9]): 4.4 mg kg-1 [middle of 4 runs]; UD50 (Rattus norvegicus [10]): >300 mg/kg
